The text below walks through data of patent US12252524B2, “GIP/GLP1 co-agonist compounds” (Eli Lilly and Company, priority 2018, dated 2025).

One experiment addresses T1, human Gcg receptor (Homo sapiens, UniProt P47871).
T1 construct: expressed in transfected cells; crude membranes
Briefly: [125I]-Glucagon binding (SPA), human Gcg receptor. Conditions: read-out: hGLcgR Ki, nM (SEM, n). In outline:
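Crude membranes from cells expressing the receptor, prepared by hypotonic lysis in 50 mM Tris HCl pH 7.5 with protease inhibitors, homogenization and differential centrifugation, were used in a WGA-bead SPA. Binding buffer: 25 mM HEPES pH 7.4, 2.5 mM CaCl2, 1 mM MgCl2, bacitracin, Tween-20.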

Another experiment has as its target T2, human GIP receptor (Homo sapiens, UniProt P48546).
T2 construct: expressed in transfected cells; crude membranes
T2 sequence (P48546 22-466): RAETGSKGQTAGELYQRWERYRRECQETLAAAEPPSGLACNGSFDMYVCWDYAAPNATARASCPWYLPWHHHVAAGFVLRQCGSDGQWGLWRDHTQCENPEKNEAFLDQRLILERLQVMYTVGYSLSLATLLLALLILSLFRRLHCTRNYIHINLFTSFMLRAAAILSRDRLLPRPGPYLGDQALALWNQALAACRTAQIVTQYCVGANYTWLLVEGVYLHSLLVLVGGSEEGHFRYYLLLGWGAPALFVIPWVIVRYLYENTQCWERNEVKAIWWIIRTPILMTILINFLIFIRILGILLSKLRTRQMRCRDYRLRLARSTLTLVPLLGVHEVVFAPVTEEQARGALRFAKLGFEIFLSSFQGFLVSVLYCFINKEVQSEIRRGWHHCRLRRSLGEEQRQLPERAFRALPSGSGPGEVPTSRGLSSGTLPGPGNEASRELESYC
Kind of experiment: [125I]-GIP binding (SPA), human GIP receptor. Conditions: read-out: hGIPR Ki, nM (SEM, n).

Experiment [1] deals with human GLP-1 receptor (GLP-1R) (Homo sapiens, UniProt P43220). Kind of experiment: cAMP pharmacological functional assay in presence of casein, hGLP-1R. It is filed as cell-based. Conditions: HEK293 cells expressing hGLP-1R, 0.1% Casein, geometric mean; read-out: hGLP1R cAMP Rel EC50 nM (SEM, n).
Sequence of human GLP-1 receptor (GLP-1R) (P43220 24-463): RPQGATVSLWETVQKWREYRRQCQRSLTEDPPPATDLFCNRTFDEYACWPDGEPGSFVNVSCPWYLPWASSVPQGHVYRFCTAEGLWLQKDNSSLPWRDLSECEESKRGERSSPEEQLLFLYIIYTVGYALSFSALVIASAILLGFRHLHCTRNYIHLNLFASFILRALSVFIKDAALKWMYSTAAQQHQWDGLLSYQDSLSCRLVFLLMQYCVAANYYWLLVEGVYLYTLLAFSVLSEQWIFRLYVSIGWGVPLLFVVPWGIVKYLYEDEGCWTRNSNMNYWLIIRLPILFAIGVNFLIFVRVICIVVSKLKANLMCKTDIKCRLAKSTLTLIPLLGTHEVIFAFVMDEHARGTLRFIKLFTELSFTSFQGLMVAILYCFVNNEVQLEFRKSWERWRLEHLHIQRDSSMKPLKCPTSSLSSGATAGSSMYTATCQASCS
Experiment [2] addresses T3, gastric inhibitory peptide receptor (GIPR) (Homo sapiens, UniProt P48546).
T3 sequence (P48546 22-466): T2 sequence (P48546 22-466)
Kind of experiment: cAMP pharmacological functional assay in presence of casein, hGIPR. The experiment is classed as cell-based. Conditions: HEK293 cells expressing hGIPR, 0.1% Casein, geometric mean; read-out: hGIPR cAMP Rel EC50 nM (SEM, n).

The target of the next experiment is human GLP-1R (Homo sapiens, UniProt P43220). Kind of experiment: [125I]-GLP-1 binding (SPA), human GLP-1 receptor. The arrangement: expressed in transfected cells; crude membranes. Conditions: read-out: hGLP1R Ki, (nM) (SEM, n). An outline of the steps:
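Frozen cell pellets are lysed on ice in hypotonic Tris buffer, pH 7.5, homogenized, and centrifuged to a membrane pellet resuspended at about 1 to 3 mg/mL. Binding is then measured in HEPES-based buffer at pH 7.4, and curves are fitted to give IC50 and Ki.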

Numbered stars: 1 amine (or outer) side, 2 acyl side, 3 side chain; on linkers, the order of the positions; unused ones are H or OH. Square brackets hold non-standard residues; d marks the D form. Side chains are listed from the residue outwards. Peptide text beside a SMILES is read from it. * marks the point of attachment. C20 diacid = O=C(O)CCCCCCCCCCCCCCCCCCC(=O)*; αMePhe(2-F) = C[C@](N)(Cc1ccccc1F)C(=O)O; γGlu = O=C(O)[C@H](CCC(=O)[*:2])N[*:1]; 3Pal = N[C@@H](Cc1cccnc1)C(=O)O; 4Pal = N[C@@H](Cc1ccncc1)C(=O)O; αMeL = CC(C)C[C@](C)(N)C(=O)O; AEEA = NCCOCCOCC(=O)O; Aib = CC(C)(N)C(=O)O

T1 sequence (P47871 26-477): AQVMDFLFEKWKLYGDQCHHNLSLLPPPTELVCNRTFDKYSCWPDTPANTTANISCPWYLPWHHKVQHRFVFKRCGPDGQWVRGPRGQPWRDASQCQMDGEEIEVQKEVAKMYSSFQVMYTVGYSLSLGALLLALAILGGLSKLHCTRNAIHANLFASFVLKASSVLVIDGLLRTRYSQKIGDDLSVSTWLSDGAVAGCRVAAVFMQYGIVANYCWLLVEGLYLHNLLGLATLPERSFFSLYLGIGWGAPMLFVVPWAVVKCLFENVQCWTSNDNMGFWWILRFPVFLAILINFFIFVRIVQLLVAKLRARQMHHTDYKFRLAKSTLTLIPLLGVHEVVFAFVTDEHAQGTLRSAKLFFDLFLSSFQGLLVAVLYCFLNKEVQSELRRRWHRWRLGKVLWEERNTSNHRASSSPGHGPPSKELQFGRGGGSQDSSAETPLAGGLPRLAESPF
Sequence of human GLP-1R (P43220 24-463): as the sequence (P43220 24-463) above

Consider `CC[C@H](C)[C@H](NC(=O)[C@H](CC(C)C)NC(=O)[C@H](Cc1ccc(O)cc1)NC(=O)[C@H](CCC(=O)O)NC(=O)[C@@H](NC(=O)[C@H](Cc1ccccc1)NC(=O)[C@H](CCC(=O)O)NC(=O)C(C)(C)NC(=O)[C@H](CCC(N)=O)NC(=O)[C@H](C)NC(=O)[C@H](CCCCNC(=O)COCCOCCNC(=O)COCCOCCNC(=O)CC[C@H](NC(=O)CCCCCCCCCCCCCCCCCCC(=O)O)C(=O)O)NC(=O)[C@H](CCC(=O)O)NC(=O)[C@H](CC(=O)O)NC(=O)[C@H](CC(C)C)NC(=O)[C@](C)(CC(C)C)NC(=O)[C@@H](NC(=O)[C@H](CO)NC(=O)[C@H](Cc1cccnc1)NC(=O)[C@H](CC(=O)O)NC(=O)[C@H](CO)NC(=O)[C@@H](NC(=O)[C@](C)(Cc1ccccc1F)NC(=O)[C@@H](NC(=O)CNC(=O)[C@H](CCC(=O)O)NC(=O)C(C)(C)NC(=O)[C@@H](N)Cc1ccc(O)cc1)[C@@H](C)O)[C@@H](C)O)[C@@H](C)CC)[C@@H](C)CC)C(=O)N[C@@H](CCC(=O)O)C(=O)NCC(=O)NCC(=O)N1CCC[C@H]1C(=O)N[C@@H](CO)C(=O)N[C@@H](CO)C(=O)NCC(=O)N[C@@H](C)C(=O)N1CCC[C@H]1C(=O)N1CCC[C@H]1C(=O)N1CCC[C@H]1C(=O)N[C@@H](CO)C(N)=O` [Example 157] (H-Y[Aib]EGT[αMePhe(2-F)]TSD[3Pal]SI[αMeL]LDEK([AEEA-AEEA-γGlu-C20 diacid])AQ[Aib]EFIEYLIEGGPSSGAPPPS-NH2), for which the Ki on human Gcg receptor is 179 nM; on human GIP receptor, 0.0937 nM; on human GLP-1R, 8.97 nM. In addition, the concentration for a half-maximal effect (EC50) worked out at 0.0431 nM in experiment [1] and 0.0453 nM in experiment [2].

In the case of `CC[C@H](C)[C@H](NC(=O)[C@H](CC(C)C)NC(=O)[C@H](Cc1ccc(O)cc1)NC(=O)[C@H](CCC(=O)O)NC(=O)[C@@H](NC(=O)[C@H](Cc1ccccc1)NC(=O)[C@H](CCC(=O)O)NC(=O)C(C)(C)NC(=O)[C@H](CCC(N)=O)NC(=O)[C@H](C)NC(=O)[C@H](CCCCNC(=O)COCCOCCNC(=O)COCCOCCNC(=O)CC[C@H](NC(=O)CCCCCCCCCCCCCCCCCCC(=O)O)C(=O)O)NC(=O)[C@H](CCC(=O)O)NC(=O)[C@H](CC(=O)O)NC(=O)[C@H](CC(C)C)NC(=O)[C@](C)(CC(C)C)NC(=O)[C@@H](NC(=O)[C@H](CO)NC(=O)[C@H](Cc1ccncc1)NC(=O)[C@H](CC(=O)O)NC(=O)[C@H](CO)NC(=O)[C@@H](NC(=O)[C@](C)(Cc1ccccc1F)NC(=O)[C@@H](NC(=O)CNC(=O)[C@H](CCC(=O)O)NC(=O)C(C)(C)NC(=O)[C@@H](N)Cc1ccc(O)cc1)[C@@H](C)O)[C@@H](C)O)[C@@H](C)CC)[C@@H](C)CC)C(=O)N[C@@H](CCC(=O)O)C(=O)NCC(=O)NCC(=O)N1CCC[C@H]1C(=O)N[C@@H](CO)C(=O)N[C@@H](CO)C(=O)NCC(=O)N[C@@H](C)C(=O)N1CCC[C@H]1C(=O)N1CCC[C@H]1C(=O)N1CCC[C@H]1C(=O)N[C@@H](CO)C(N)=O` [Example 158] (H-Y[Aib]EGT[αMePhe(2-F)]TSD[4Pal]SI[αMeL]LDEK([AEEA-AEEA-γGlu-C20 diacid])AQ[Aib]EFIEYLIEGGPSSGAPPPS-NH2; N-terminus assumed), the inhibition constant (Ki) on human Gcg receptor came to 285 nM; on human GIP receptor it was 0.114 nM; at human GLP-1R, 11.8 nM. In addition, the concentration giving a half-maximal response (EC50) came out at 0.0374 nM in experiment [1] and 0.0454 nM in experiment [2].

As for `CC[C@H](C)[C@H](NC(=O)[C@H](CC(C)C)NC(=O)[C@H](Cc1ccc(O)cc1)NC(=O)[C@@H](CCC(=O)O)NC(=O)[C@@H](NC(=O)[C@H](Cc1ccccc1)NC(=O)[C@@H](NC(=O)C(C)(C)NC(=O)[C@H](CCC(N)=O)NC(=O)[C@H](C)NC(=O)[C@H](CCCCNC(=O)COCCOCCNC(=O)COCCOCCNC(=O)CC[C@H](NC(=O)CCCCCCCCCCCCCCCCCCC(=O)O)C(=O)O)NC(=O)[C@H](CCC(=O)O)NC(=O)[C@H](CC(=O)O)NC(=O)[C@H](CC(C)C)NC(=O)[C@](C)(CC(C)C)NC(=O)[C@@H](NC(=O)[C@H](CO)NC(=O)C(C)(C)NC(=O)[C@H](CC(=O)O)NC(=O)[C@H](CO)NC(=O)[C@@H](NC(=O)[C@](C)(Cc1ccccc1F)NC(=O)[C@@H](NC(=O)CNC(=O)[C@H](CCC(=O)O)NC(=O)C(C)(C)NC(=O)[C@@H](N)Cc1ccc(O)cc1)[C@@H](C)O)[C@@H](C)O)[C@@H](C)CC)[C@@H](C)O)[C@@H](C)CC)C(=O)N[C@@H](CCC(=O)O)C(=O)NCC(=O)NCC(=O)N1CCC[C@H]1C(=O)N[C@@H](CO)C(=O)N[C@@H](CO)C(=O)NCC(=O)N[C@@H](C)C(=O)N1CCC[C@H]1C(=O)N1CCC[C@H]1C(=O)N1CCC[C@H]1C(=O)N[C@@H](CO)C(N)=O` [Example 160] (H-Y[Aib]EGT[αMePhe(2-F)]TSD[Aib]SI[αMeL]LDEK([AEEA-AEEA-γGlu-C20 diacid])AQ[Aib]TFI[dE]YLIEGGPSSGAPPPS-NH2), the results for the Ki on human Gcg receptor, at human GIP receptor and at human GLP-1R were greater than 1060 nM, 5.98 nM and 14.4 nM, respectively. The EC50 in experiment [1] turned out to be 0.0461 nM; in experiment [2], 21 nM.

Take `CC[C@H](C)[C@H](NC(=O)[C@H](CC(C)C)NC(=O)[C@H](Cc1ccc(O)cc1)NC(=O)[C@H](CCC(=O)O)NC(=O)[C@@H](NC(=O)[C@H](Cc1ccccc1)NC(=O)[C@H](CCC(=O)O)NC(=O)C(C)(C)NC(=O)[C@H](CCC(N)=O)NC(=O)[C@H](C)NC(=O)[C@H](CCCCNC(=O)COCCOCCNC(=O)COCCOCCNC(=O)CC[C@H](NC(=O)CCCCCCCCCCCCCCCCCCC(=O)O)C(=O)O)NC(=O)[C@H](CCC(=O)O)NC(=O)[C@H](CC(=O)O)NC(=O)[C@H](CC(C)C)NC(=O)[C@](C)(CC(C)C)NC(=O)[C@@H](NC(=O)[C@H](CO)NC(=O)[C@H](Cc1ccc(O)cc1)NC(=O)[C@H](CC(=O)O)NC(=O)[C@H](CO)NC(=O)[C@@H](NC(=O)[C@](C)(Cc1ccccc1F)NC(=O)[C@@H](NC(=O)CNC(=O)[C@H](CCC(=O)O)NC(=O)C(C)(C)NC(=O)[C@@H](N)Cc1c[nH]cn1)[C@@H](C)O)[C@@H](C)O)[C@@H](C)CC)[C@@H](C)CC)C(=O)N[C@@H](CCC(=O)O)C(=O)NCC(=O)NCC(=O)N1CCC[C@H]1C(=O)N[C@@H](CO)C(=O)N[C@@H](CO)C(=O)NCC(=O)N[C@@H](C)C(=O)N1CCC[C@H]1C(=O)N1CCC[C@H]1C(=O)N1CCC[C@H]1C(=O)N[C@@H](CO)C(N)=O` [Example 163] (H-H[Aib]EGT[αMePhe(2-F)]TSDYSI[αMeL]LDEK([AEEA-AEEA-γGlu-C20 diacid])AQ[Aib]EFIEYLIEGGPSSGAPPPS-NH2): the figures for the Ki on human Gcg receptor, at human GIP receptor and on human GLP-1R were 117 nM, 0.116 nM and 10.8 nM, respectively. Moreover, the EC50 in experiment [1] was determined as 0.0316 nM; in experiment [2] it was 0.121 nM.

On to `CC[C@H](C)[C@H](NC(=O)[C@H](CC(C)C)NC(=O)[C@H](Cc1ccc(O)cc1)NC(=O)C(C)(C)NC(=O)[C@@H](NC(=O)[C@H](Cc1ccccc1)NC(=O)[C@H](CCC(=O)O)NC(=O)C(C)(C)NC(=O)[C@H](CCC(N)=O)NC(=O)[C@H](C)NC(=O)[C@H](CCCCNC(=O)COCCOCCNC(=O)COCCOCCNC(=O)CC[C@H](NC(=O)CCCCCCCCCCCCCCCCCCC(=O)O)C(=O)O)NC(=O)[C@H](CCC(=O)O)NC(=O)[C@H](CC(=O)O)NC(=O)[C@H](CC(C)C)NC(=O)[C@](C)(CC(C)C)NC(=O)[C@@H](NC(=O)[C@H](CO)NC(=O)[C@H](Cc1ccncc1)NC(=O)[C@H](CC(=O)O)NC(=O)[C@H](CO)NC(=O)[C@@H](NC(=O)[C@](C)(Cc1ccccc1F)NC(=O)[C@@H](NC(=O)CNC(=O)[C@H](CCC(=O)O)NC(=O)C(C)(C)NC(=O)[C@@H](N)Cc1ccc(O)cc1)[C@@H](C)O)[C@@H](C)O)[C@@H](C)CC)[C@@H](C)CC)C(=O)N[C@@H](CCC(=O)O)C(=O)NCC(=O)NCC(=O)N1CCC[C@H]1C(=O)N[C@@H](CO)C(=O)N[C@@H](CO)C(=O)NCC(=O)N[C@@H](C)C(=O)N1CCC[C@H]1C(=O)N1CCC[C@H]1C(=O)N1CCC[C@H]1C(=O)N[C@@H](CO)C(N)=O` [Example 189] (H-Y[Aib]EGT[αMePhe(2-F)]TSD[4Pal]SI[αMeL]LDEK([AEEA-AEEA-γGlu-C20 diacid])AQ[Aib]EFI[Aib]YLIEGGPSSGAPPPS-NH2), for which the inhibition constant (Ki) on human Gcg receptor was 146 nM; at human GIP receptor, 0.128 nM; on human GLP-1R it was 8.81 nM. Moreover, the half-maximal effective concentration (EC50) is 0.0608 nM in experiment [1] and 0.0775 nM in experiment [2].

By Ki is commonly meant a measure of affinity in units of concentration, obtained from inhibition or displacement. Usually EC50 stands for the concentration at which the effect is half-maximal.
